{"source": "paper PMC6614805", "about": "(2019)", "key": {"[1]": {"tested_on": "SCA2.1 (DNA, aptamer) CTTACGACCTTAAGTGGGGTTCGGGTGGAGTTTATGGGGTCGTAAG", "test": "Cy7 displacement, absorbance A670/A775", "settings": "Cy7 (2 µM) displaced from 3 µM SCA2.1"}, "[2]": {"tested_on": "SCA2.1 (DNA, aptamer) CTTACGACCTTAAGTGGGGTTCGGGTGGAGTTTATGGGGTCGTAAG", "test": "ITC", "settings": "20 mM NaCl, 0.5 mM MgCl2, 10 mM Tris-HCl pH 7.4, 23 °C; for KD: pure enantiomer, one-site model; for KD1: racemate, modified two-site model, site 1 of 2 (one enantiomer)"}, "[3]": {"tested_on": "SCA2.1 (DNA, aptamer) CTTACGACCTTAAGTGGGGTTCGGGTGGAGTTTATGGGGTCGTAAG", "test": "absorbance titration at 775 nm", "settings": "20 mM NaCl, 0.5 mM MgCl2; 10 mM Tris-HCl pH 7.4, 0.01% Tween 20, 1% DMSO, room temperature; 2 µM Cy7"}, "[4]": {"settings": "highest concentration tested 50 µM"}}, "data": [{"smiles": "CC(=O)Nc1ccc(O)cc1", "values": [{"measurement": "binding", "setting": "[1]; [4]", "result": "no"}]}, {"smiles": "CCCC(C(=O)c1ccc2c(c1)OCO2)N1CCCC1", "note": "(stereo not drawn)", "values": [{"measurement": "KD", "setting": "[2]", "result": "3.61 ± 0.12", "unit": "µM"}]}, {"smiles": "CCCC(C(=O)c1ccc2ccccc2c1)N1CCCC1", "note": "(stereo not drawn)", "values": [{"measurement": "binding", "setting": "[1]; 50 µM compound", "result": "yes"}]}, {"smiles": "CCCC(NC)C(=O)c1ccc2c(c1)OCO2", "note": "(stereo not drawn)", "values": [{"measurement": "binding", "setting": "[1]; 50 µM compound", "result": "yes"}]}, {"smiles": "CCC[C@H](C(=O)c1ccc2c(c1)OCO2)N1CCCC1", "values": [{"measurement": "KD", "setting": "[2]", "result": "0.0465 ± 0.0075", "unit": "µM"}]}, {"smiles": "CCN(CC)CC(=O)Nc1c(C)cccc1C", "values": [{"measurement": "binding", "setting": "[1]; [4]", "result": "no"}]}, {"smiles": "CCN1C(=CC=CC=CC=Cc2sc3ccccc3[n+]2CC)Sc2ccccc21", "values": [{"measurement": "KD", "setting": "[3]", "result": 1.6, "unit": "µM"}]}, {"smiles": "CCOC(=O)c1ccc(N)cc1", "values": [{"measurement": "binding", "setting": "[1]; [4]", "result": "no"}]}, {"smiles": "CNC(C)C(=O)c1ccc(C)cc1", "note": "(stereo not drawn)", "values": [{"measurement": "binding", "setting": "[1]; 50 µM compound", "result": "yes"}]}, {"smiles": "CNC(C)C(=O)c1ccc(F)cc1", "note": "(stereo not drawn)", "values": [{"measurement": "binding", "setting": "[1]; 50 µM compound", "result": "yes"}]}, {"smiles": "CNC(C)C(=O)c1ccc2c(c1)OCO2", "note": "(stereo not drawn)", "values": [{"measurement": "binding", "setting": "[1]; 50 µM compound", "result": "yes"}]}, {"smiles": "CNC(C)C(=O)c1cccc(F)c1", "note": "(stereo not drawn)", "values": [{"measurement": "binding", "setting": "[1]; 50 µM compound", "result": "yes"}]}, {"smiles": "CNC(C)C(=O)c1ccccc1", "note": "(stereo not drawn)", "values": [{"measurement": "binding", "setting": "[1]; 50 µM compound", "result": "yes"}]}, {"smiles": "CN[C@@H](C)[C@@H](O)c1ccccc1", "values": [{"measurement": "binding", "setting": "[1]; [4]", "result": "no"}]}, {"smiles": "C[C@H](N)C(=O)c1ccccc1", "values": [{"measurement": "binding", "setting": "[1]; 50 µM compound", "result": "yes"}]}, {"smiles": "Cn1c(=O)c2c(ncn2C)n(C)c1=O", "values": [{"measurement": "binding", "setting": "[1]; [4]", "result": "no"}]}, {"smiles": "OC[C@H]1O[C@@](CO)(O[C@H]2O[C@H](CO)[C@@H](O)[C@H](O)[C@H]2O)[C@@H](O)[C@@H]1O", "values": [{"measurement": "binding", "setting": "[1]; [4]", "result": "no"}]}, {"smiles": "CCC(NC)C(=O)c1ccc2c(c1)OCO2", "note": "(racemic)", "values": [{"measurement": "KD1", "setting": "[2]", "result": "0.16 ± 0.05", "unit": "µM"}]}, {"smiles": "CCCC(C(=O)c1ccc2c(c1)OCO2)N1CCCC1", "note": "(racemic)", "values": [{"measurement": "KD1", "setting": "[2]", "result": "0.0175 ± 0.0164", "unit": "µM"}]}, {"smiles": "CCCC(C(=O)c1ccccc1)N1CCCC1", "note": "(racemic)", "values": [{"measurement": "KD1", "setting": "[2]", "result": "0.09 ± 0.02", "unit": "µM"}]}, {"smiles": "CCNC(C)C(=O)c1ccc2c(c1)OCO2", "note": "(racemic)", "values": [{"measurement": "KD1", "setting": "[2]", "result": "0.10 ± 0.03", "unit": "µM"}]}]}
